Data set [1] has as its system model rats (HFD/low-dose STZ, T2DM). Nature of the data set: Oral glucose tolerance test (OGTT) in HFD/STZ T2DM model rats. The data set is classed as in vivo, rat. Particulars: 3 mg/kg oral, model rats. The method, then:
(§1) To establish model of T2DM, male rats (80–100 g, 9-week-old)[49] were fed high fat diet (HFD) (20% sugar, 10% lard, 10% egg yolk and 60% basal feed) after a week of normal diet. After 4 weeks, rats were injected once with low-dose streptozotocin (Solarbio, China) (STZ, 30 mg/kg i.p) to induce partial insulin deficiency, and then continuously fed HFD for 4 weeks after injection of STZ. Then the model rats were oral administrated drugs for 30 days. The body weights were recorded once a week.
On the 1st day, 19th days and 29th days of treatment, oral glucose tolerance tests for model rats were carried out. […] The blood glucose levels were tested using Johnson one touch Ultra Test Strips on Johnson Performa blood glucose meter.

The test system of data set [2] is insulin. The experiment in a line: Plasma insulin levels in model rats (ELISA). Format: in vivo, rat. Particulars: 3 mg/kg, fasted and glucose load plasma. The procedure:
as §1
(§2) Oral glucose load, fasted and random blood samples were collected from rats on the 28th days, the 29th days and the last of the treatment of drugs, respectively. Plasma levels of insulin and GLP-1 were measured by ELISA kits (YuanYe, China) according to the manufacturer’s recommendation. The levels of HbA1c, Triglycerides (TG), total cholesterol (TC) and low density lipoprotein cholesterol (LDL-C) in blood samples were measured by commercial assay kits (JianCheng, Nanjing, China) according to the manufacturer’s directions.
Background: ELISA stands for enzyme-linked immunosorbent assay.

The subject of data set [3] is HbA1c. The experiment in a line: HbA1c level in blood of model rats. Particulars: 3 mg/kg, 30 days. Format: in vivo, rat. The procedure: as §1, §2
The subject of data set [4] is TG, LDL-C. Nature of the data set: TG and LDL-C plasma levels in model rats. Particulars: 3 mg/kg. The data set is classed as in vivo, rat. The procedure: as §1, §2
A short description of data set [5]: Body weight of model rats. Format: in vivo, rat. The note with it: 30 days treatment. The method, then: as §1
Data set [6] has as its system pancreatic islets. Nature of the data set: Morphologic observation on islet of model rats (HE, immunofluorescence, TEM). The data set is classed as in vivo, rat. The procedure:
HE staining on paraffin section was performed as described in reports. In brief, paraffin section were rinsed with PBS, fixed with 4% paraformaldehyde (PFA) for 30 min and then washed by PBS. The pancreas tissue were stained with Hematoxylin-Eosin, afterwards, they were dehydrated in alcohols. Morphological changes of the pancreas tissue were observed under an optical microscope (Olympus, Japan) after mounted by neutral resins.
Pancreas sections (8 μm) were cut in a cryostat and collected on superfrost microscope slides. The slides were stored at −20 °C till analysis. Immunofluorescent staining was used for detection of insulin (β cells) (1:100, Anti-Insulin antibody, Abcam), glucagon (α cells) (1:200, Anti-glucagon, Abcam). Briefly, the slides were blocked in 5% normal goat serum for 1 h in a humidified chamber. Slides were exposed to primary antibodies at a dilution of […] in antibody diluting solution at 4 °C overnight, washed in PBS, and exposed to appropriate secondary antibodies linked to the fluorescent probes (Goat Anti-Guinea pig IgG/FITC and Alexa Fluor 594-conjugated Goat Anti-Rabbit IgG) (Bioss and Proteintech, China) in antibody diluting solution for 1 h and DAPI (Beyotime, China) for 5 min in the dark. After washed by PBS, slides were mounted with a glycerol mounting medium. Images were collected using a fluorescent microscope (Nikon, Japan).
For transmission electron microscopy, about 1 mm^3 tissue specimens were obtained from the same pancreas region of the control and experimental groups of rats, and fixed overnight in 2% glutaraldehyde (pH7.3) in 0.1 M phosphate buffer saline at 4 °C. Images of pancreatic islets were captured from random tissue sections using a transmission electron microscope.

Data set [7] has as its system INS-1 cells. The experiment in a line: Proliferation of INS-1 cells (CCK-8). Particulars: 24 h, CCK-8, vs DMSO. Format: cell-based, rat. The method, then: The rat insulinoma cell line INS-1 (832/13) was obtained from the Department of endocrinology at 1st affiliated hospital of Chongqing medical university. Cells were cultured in RPMI 1640 (Gibco, USA) (11 mmol/l glucose, 100 units/ml penicillin, […] streptomycin, 10 mmol/l HEPES pH 7.4) supplemented with 10% FBS (Gibco, USA), 2 mmol/l L-glutamine, 1 mmol/l pyruvate, and 50 μmol/l β-mercaptoethanol. […] 10 μl of CCK-8 was then added and incubated at 37 °C and 5% CO2 for 1.5 h and […] (OD) was read at 460 nm with microplate reader. The OD value represents the proliferation activity.

In data set [8] the test system is NCI-H716 cells. The experiment in a line: GLP-1 secretion in NCI-H716 cells. The note with it: 10, 30, 100 μM, 2 h, compared with solvent group. The data set is classed as cell-based, human. The method, then: Human enteroendocrine NCI-H716 cells were maintained in suspension culture as described by the American Type Culture Collection guideline (ATCC). Two days before the experiments, cells were seeded into 12-well culture plates coated with Matrigel at 1 × 10^6 cells per well. Cells were incubated in RPMI 1640 containing 10% FBS at 37 °C for 48 h. […] After incubated for 2 h, GLP-1 concentrations from the supernatants were measured by ELISA kits (YuanYe, China).

Take `N#C[C@@H]1CCCN1C(=O)CNC12CC3CC(CC(O)(C3)C1)C2` [vildagliptin, reference compound]: the “percentage reduction of blood glucose levels in OGTT” value (shortened to “percentage reduction”) in data set [1] (1st day) is 8.9%. For the same compound, the “percentage reduction” value in data set [1] (19th day) was found to be 10.1%. The “percentage reduction” value in data set [1] (29th day) is given as 17.8%. Besides, the “insulin levels in plasma” value in data set [2] is given as “significantly increased”. Further, the “reduction of the level of HbA1c” value in data set [3] is given as 2.0%. For the same compound, in data set [4], the “reduction of LDL-C level” value worked out at 15.97% and the “reduction of TG level” value was determined as 38.79%. Further, the “body weights vs model group” value in data set [5] is given as “no significant difference”. Further, in data set [6] (30 days treatment), the “distribution of β cells (insulin/glucagon double staining)” value was “obviously improved”, the “mass of α-cells (insulin/glucagon double staining)” value is recorded as “mildly reduced” and the “morphology of pancreatic islets (HE staining)” value is listed as “prevent islet from damage”. In data set [6] (compared with the model), the “secretory granules in β cells (transmission electron microscopy)” value is given as “obviously increased”. Also, in data set [7], the “cells viabilities (proliferation) of INS-1 cells” value is listed as “increased”. In addition, the “GLP-1 levels (secretion)” value in data set [8] is recorded as “increased slightly without significance”.

Source of the values: PMC5390258, “CMD-05, a novel promising clinical anti-diabetic drug candidate, in vivo and vitro studies” (Scientific Reports, 2017).
